# ChEMBL document CHEMBL2218064, “Structure-activity relationship data for chemical series of antagonists of the P2X7 receptor (Supplementary Bioactivity Data for publication CHEMBL1157114)”
# Target: T1, P2X purinoceptor 7 (Homo sapiens, UniProt Q99572)
# T1 sequence (Q99572 whole entry): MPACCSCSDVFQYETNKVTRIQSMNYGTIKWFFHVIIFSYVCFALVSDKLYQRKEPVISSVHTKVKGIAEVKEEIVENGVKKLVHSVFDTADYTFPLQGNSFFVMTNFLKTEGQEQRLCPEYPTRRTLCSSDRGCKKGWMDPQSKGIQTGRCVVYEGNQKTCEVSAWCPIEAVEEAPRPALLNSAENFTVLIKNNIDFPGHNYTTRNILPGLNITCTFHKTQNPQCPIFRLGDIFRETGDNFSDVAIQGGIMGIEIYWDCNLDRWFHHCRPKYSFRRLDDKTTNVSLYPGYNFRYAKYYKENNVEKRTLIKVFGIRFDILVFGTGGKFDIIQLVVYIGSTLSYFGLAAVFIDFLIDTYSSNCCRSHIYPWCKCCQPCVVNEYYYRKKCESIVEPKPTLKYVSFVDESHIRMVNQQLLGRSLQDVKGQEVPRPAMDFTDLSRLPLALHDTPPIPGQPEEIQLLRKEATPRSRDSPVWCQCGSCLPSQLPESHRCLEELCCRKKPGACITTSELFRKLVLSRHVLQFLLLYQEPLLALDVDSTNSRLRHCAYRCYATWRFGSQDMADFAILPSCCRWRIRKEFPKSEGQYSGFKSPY
# Assay: SUPPLEMENTARY: Inhibition of human P2X7 receptor assessed as inhibition of ethidium bromide accumulation. Same assay as CHEMBL1103860
row,SMILES,IC50 [nM]
1,O=C1C(=O)N(c2cccc(N3CCOCC3)c2)CCN1Cc1ccc(F)cc1Cl,251
2,O=C1C(=O)N(c2ccccc2N2CCOCC2)CCN1Cc1ccc(F)cc1Cl,126
3,O=C1C(=O)N(c2cccc3cccnc23)CCN1Cc1ccc(F)cc1Cl,1000
4,O=C1C(=O)N(c2ccc3c(c2)OCCO3)CCN1Cc1ccc(F)cc1Cl,200
5,Cc1ccccc1N1CCN(Cc2c(F)cccc2Cl)C(=O)C1=O,1000
6,Cc1ccc(N2CCN(Cc3ccc(F)cc3Cl)C(=O)C2=O)cc1C,501
7,Cc1cc(C)cc(N2CCN(Cc3ccc(F)cc3Cl)C(=O)C2=O)c1,1000
8,Cc1ccccc1CN1CCN(c2ccccc2C)C(=O)C1=O,501
9,Cc1ccccc1N1CCN(Cc2ccc(Cl)cc2)C(=O)C1=O,398
10,Cc1ccccc1N1CCN(Cc2cc(Cl)ccc2Cl)C(=O)C1=O,1000
11,Cc1cc(F)ccc1CN1CCN(c2ccccc2C)C(=O)C1=O,158
12,N#Cc1c(F)cccc1N1CCN(Cc2ccc(F)cc2Cl)C(=O)C1=O,631
13,Cc1ccccc1CN1CCN(c2cccc(Cl)c2Cl)C(=O)C1=O,251
14,O=C1C(=O)N(c2cccc(Cl)c2Cl)CCN1Cc1ccccc1Cl,200
15,O=C1C(=O)N(c2cccc(Cl)c2Cl)CCN1Cc1cccc(Cl)c1,501
16,O=C1C(=O)N(c2cccc(Cl)c2Cl)CCN1Cc1ccc(Cl)cc1,794
17,Cc1c(Cl)cccc1CNC(=O)[C@@H]1CCS(=O)(=O)N1C(C)C,251
18,CCN1[C@H](C(=O)NCc2ccc(F)cc2C(F)(F)F)CCS1(=O)=O,126
19,CC(C)N1[C@H](C(=O)NCc2ccc(F)cc2Cl)CCS1(=O)=O,200
20,CC(C)N1[C@H](C(=O)NCc2ccc(F)c(F)c2F)CCS1(=O)=O,501
21,CCN1C(=O)[C@@H](Cc2ccccc2)C[C@H]1C(=O)NCc1ccc(F)cc1Cl,126
22,Cc1cccc(N2C[C@@H](C(=O)NCc3ccc(F)cc3Cl)N(C)C2=O)n1,398
23,O=C1C(=O)N(c2cccc(I)c2)CCN1Cc1ccc(F)cc1Cl,398

row,SMILES,IC50 [nM]
1,Cc1cnccc1N1CCN(Cc2ccc(F)cc2Cl)C(=O)C1=O,501
2,Cc1ccccc1N1CCN(C(=O)c2ccc(F)cc2Cl)CC1=O,501
3,Cc1ccc(C)c(N2CCN(Cc3ccc(F)cc3Cl)C(=O)C2=O)n1,200
4,O=C(c1cccc(Cl)c1Cl)N1CCN(c2ccc(F)cc2)C(=O)C1,100
5,Cc1c(CN2CCOCC2)cccc1N1CCN(Cc2ccc(F)cc2Cl)C(=O)C1=O,100
6,Cc1ncccc1N1CCN(Cc2ccc(F)cc2Cl)C(=O)C1=O,631
7,O=C(c1cccc(Cl)c1Cl)N1CCN(c2cccc(Cl)c2)C(=O)C1,100
8,Cc1cccnc1N1CCN(Cc2ccc(F)cc2Cl)C(=O)C1=O,631
9,O=C1C(=O)N(c2ccccc2)CCN1Cc1ccc(F)cc1Cl,398
10,O=C(c1ccc(F)cc1Cl)N1CCN(c2cccc3ccccc23)C(=O)C1,100
11,O=C1C(=O)N(c2ccccc2F)CCN1Cc1ccc(F)cc1Cl,126
12,Cc1cccc(N2CCN(Cc3ccc(F)cc3Cl)C(=O)C2=O)c1,158
13,COc1cccc(N2CCN(Cc3ccc(F)cc3Cl)C(=O)C2=O)c1,158
14,Cc1ccccc1N1CCN(Cc2ccccc2Cl)C(=O)C1=O,126
15,Cc1ccccc1N1CCN(Cc2ccccc2F)C(=O)C1=O,1000
16,Cc1ccccc1N1CCN(Cc2ccc(F)c(F)c2F)C(=O)C1=O,251
17,Cn1nccc1CC(=O)NCc1ccc(F)cc1Cl,251
18,Cn1nccc1CC(=O)NCc1ccc(F)c(F)c1Cl,158
19,Cn1nccc1CC(=O)NCc1ccc(Cl)cc1Cl,126
20,Cn1ncc(F)c1CC(=O)NCc1ccc(F)cc1Cl,126
21,Cn1ncc(F)c1CC(=O)NCc1ccc(F)c(F)c1Cl,100
22,Cc1ccccc1N1CCN(Cc2ccc(F)cc2C(F)(F)F)C(=O)C1=O,126

# More lines, in order of falling IC50, values ahead:
row,IC50 [nM],SMILES
1,100,Cc1c(F)cccc1N1CCN(Cc2ccc(F)cc2Cl)C(=O)C1=O
2,100,COc1ccc(F)cc1N1CCN(Cc2ccc(F)cc2Cl)C(=O)C1=O
3,100,O=C1C(=O)N(c2cccc(Cl)c2Cl)CCN1Cc1ccc(F)cc1Cl
4,79.4,Cc1ccc(N2CCN(Cc3ccc(F)cc3Cl)C(=O)C2=O)c(C)c1
5,79.4,COc1c(F)cccc1N1CCN(Cc2ccc(F)cc2Cl)C(=O)C1=O
6,79.4,CN1[C@H](C(=O)NCc2ccc(F)c(F)c2Cl)CCS1(=O)=O
7,79.4,CN1C(=O)N(c2ccccn2)C[C@H]1C(=O)NCc1ccc(F)cc1Cl
8,79.4,CCN1[C@H](C(=O)NCc2ccc(F)c(F)c2Cl)CCS1(=O)=O
9,79.4,CN1C(=O)N(Cc2ccccn2)CC1C(=O)NCc1ccc(F)c(F)c1Cl (centres undefined)
10,63.1,Cc1ccc(N2C[C@@H](C(=O)NCc3ccc(F)cc3Cl)N(C)C2=O)cn1
11,63.1,Cc1ccccc1N1CCN(C(=O)c2ccc(Cl)cc2Cl)CC1=O
12,50.1,CCN1C(=O)C(C)(C)C[C@H]1C(=O)NCc1ccc(F)cc1Cl
13,50.1,O=C1C(=O)N(c2cccc3c2CCCC3)CCN1Cc1ccc(F)cc1Cl
14,50.1,Cc1ccc(C(F)(F)F)cc1N1CCN(Cc2ccc(F)cc2Cl)C(=O)C1=O
15,50.1,CCN1[C@H](C(=O)NCc2cccc(Cl)c2C)CCS1(=O)=O
16,50.1,CC(C)N1[C@H](C(=O)NCc2ccc(Cl)cc2Cl)CCS1(=O)=O
17,50.1,Cc1ncccc1N1C[C@@H](C(=O)NCc2ccc(F)cc2Cl)N(C)C1=O
18,50.1,CN1C(=O)N(c2cccnc2)C[C@H]1C(=O)NCc1ccc(F)cc1Cl
19,50.1,Cc1cccc(N2CCN(Cc3ccc(F)cc3Cl)C(=O)C2=O)c1N1CCOCC1
20,50.1,COc1ccccc1N1CCN(Cc2ccc(F)cc2Cl)C(=O)C1=O

row,IC50 [nM],SMILES
1,50.1,Cc1ccccc1N1CCN(Cc2ccc(F)cc2Cl)C(=O)C1=O
2,50.1,Cn1ncc(F)c1CC(=O)NCc1ccc(Cl)cc1Cl
3,39.8,Cn1ncc(I)c1CC(=O)NCc1ccc(Cl)cc1Cl
4,39.8,Cc1ccc(F)cc1N1CCN(Cc2ccc(F)cc2Cl)C(=O)C1=O
5,39.8,CN1C(=O)NC[C@H]1C(=O)NCc1ccc(F)cc1Cl
6,39.8,O=C1C(=O)N(c2cccc(Cl)c2N2CCOCC2)CCN1Cc1ccc(F)cc1Cl
7,39.8,CCN1C(=O)C(C)(C)C[C@H]1C(=O)NCc1ccc(F)c(F)c1Cl
8,39.8,Cc1ccccc1N1CCN(Cc2cccc(C(F)(F)F)c2Cl)C(=O)C1=O
9,31.6,Cc1ccccc1N1CCN(C(C)c2ccc(Cl)cc2Cl)C(=O)C1=O (centres undefined)
10,31.6,CN1C(=O)N(C2CCNCC2)CC1C(=O)NCc1cccc(C(F)(F)F)c1Cl (centres undefined)
11,31.6,CCN1C(=O)[C@H](Cc2ccccc2)C[C@H]1C(=O)NCc1cccc(C(F)(F)F)c1Cl
12,31.6,Cc1ccc(N2CCOCC2)cc1N1CCN(Cc2ccc(F)cc2Cl)C(=O)C1=O
13,31.6,Cn1ncc(Cl)c1CC(=O)NCc1ccc(F)c(F)c1Cl
14,25.1,CC1CC(=O)N(C)[C@@H]1C(=O)NCc1cccc(C(F)(F)F)c1Cl (some centres undefined)
15,25.1,COc1cccc(N2CCN(Cc3ccc(F)cc3Cl)C(=O)C2=O)c1C
16,25.1,CN1C(=O)N(c2ncccn2)C[C@H]1C(=O)NCc1ccc(F)cc1Cl
17,25.1,Cn1nccc1CC(=O)NCc1cccc(C(F)(F)F)c1Cl
18,25.1,Cc1ccccc1N1CCN(Cc2cccc(Cl)c2Cl)C(=O)C1=O
19,20,O=C1C(=O)N(c2ccccc2Cl)CCN1Cc1ccc(F)cc1Cl
20,15.8,Cc1ccccc1N1CCN(C(=O)c2cccc(Cl)c2Cl)CC1=O

row,IC50 [nM],SMILES
1,15.8,CCN1[C@H](C(=O)NCc2ccc(Cl)cc2Cl)CCS1(=O)=O
2,15.8,CN1[C@H](C(=O)NCc2cccc(C(F)(F)F)c2Cl)CCS1(=O)=O
3,12.6,CN1C(=O)N(c2cccnc2)CC1C(=O)NCc1cccc(C(F)(F)F)c1Cl (centres undefined)
4,12.6,O=C1C(=O)N(c2ccccc2Br)CCN1Cc1ccc(F)cc1Cl
5,12.6,Cn1ncc(Cl)c1CC(=O)NCc1ccc(Cl)cc1Cl
6,10,COc1ccc(C)c(N2CCN(Cc3ccc(F)cc3Cl)C(=O)C2=O)c1
7,10,Cc1ccc(N2C[C@@H](C(=O)NCc3cccc(C(F)(F)F)c3Cl)N(C)C2=O)cn1
8,10,Cc1ccccc1N1CCN(C(=O)c2cccc(C(F)(F)F)c2Cl)CC1=O
9,10,CCN1[C@H](C(=O)NCc2cccc(C(F)(F)F)c2Cl)CCS1(=O)=O
10,10,Cc1ccccc1N1CCN(Cc2ccc(Cl)cc2Cl)C(=O)C1=O
11,7.94,Cc1ccc(C)c(N2CCN(Cc3ccc(F)cc3Cl)C(=O)C2=O)c1
12,7.94,CN1C(=O)N(c2ccccn2)CC1C(=O)NCc1cccc(C(F)(F)F)c1Cl (centres undefined)
13,6.31,CN1C(=O)N(c2ccccn2)C[C@H]1C(=O)NCc1cccc(C(F)(F)F)c1Cl
14,6.31,CN1C(=O)N(c2ncccn2)C[C@H]1C(=O)NCc1ccc(Cl)cc1Cl
15,6.31,CN1C(=O)CC[C@H]1C(=O)NCc1cccc(C(F)(F)F)c1C#N
16,5.01,Cc1ccccc1N1CCN(Cc2c(C)cc(Cl)cc2Cl)C(=O)C1=O
17,5.01,CCN1C(=O)C(C)(C)C[C@H]1C(=O)NCc1cccc(C(F)(F)F)c1Cl
18,5.01,Cc1cccc(N2CCN(Cc3ccc(F)cc3Cl)C(=O)C2=O)c1C
19,3.16,CN1C(=O)N(c2ncccn2)CC1C(=O)NCc1cccc(C(F)(F)F)c1Cl (centres undefined)
